In ChEMBL document CHEMBL3272085, “Quantitative structure-activity relationships. 2. A mixed approach, based on Hansch and Free-Wilson Analysis” (1976):

Columns and labels:
Assay type in all cases: functional
Staphylococcus aureus = experiment: Antimicrobial activity against Staphylococcus aureus
Aspergillus niger = experiment: Antimicrobial activity against Aspergillus niger
Rattus norvegicus = species: Rattus norvegicus; experiment: Thyroxine-like activity in rat by antigoiter assay relative to control
Bacillus cereus = experiment: Antimicrobial activity against Bacillus cereus
Enterococcus faecalis = experiment: Antimicrobial activity against Streptococcus faecalis
Bacillus subtilis = experiment: Antimicrobial activity against Bacillus subtilis
Micrococcus luteus = experiment: Antimicrobial activity against Sarcina lutea
Wickerhamomyces anomalus = experiment: Antimicrobial activity against Hansenula anomala

CCCCCCCC[N+](C)(C)Cc1ccc([N+](=O)[O-])cc1
log(1/C) (Staphylococcus aureus): 2.11

Oc1ccccc1C1CCCCC1
log(1/C) (Aspergillus niger): 4

Oc1ccc(Cl)cc1C1CCCCC1
log(1/C) (Aspergillus niger): 4.4

Oc1ccc(Cl)cc1 [PARACHLOROPHENOL]
log(1/C) (Aspergillus niger): 3.35

CCCCCCCCCCCCCC[N+](C)(C)Cc1ccc2c(c1)OCO2
log(1/C) (Staphylococcus aureus): 4.23

Oc1ccccc1 [PHENOL]
log(1/C) (Aspergillus niger): 2.35

CCCCCCCCCCCC[N+](C)(C)Cc1ccc(Cl)cc1Cl
log(1/C) (Staphylococcus aureus): 4.25

CCCCCCCCCCCCCCCCCC[N+](C)(C)Cc1ccc(Cl)cc1Cl
log(1/C) (Staphylococcus aureus): 3.3

N[C@@H](Cc1cc(Br)c(Oc2cc(Br)c(O)c(Br)c2)c(Br)c1)C(=O)O
Activity (Rattus norvegicus): 0.51% | log(activity) (Rattus norvegicus): -0.29

CCCCCCCCCCCCCCCC[N+](C)(C)Cc1ccc(Cl)cc1Cl
log(1/C) (Staphylococcus aureus): 3.41

CCCCCCCCCCCCCCCC[N+](C)(C)Cc1ccc(Cl)cc1
log(1/C) (Staphylococcus aureus): 3.85

CCCCCCCCCCCCCCCC[N+](C)(C)Cc1ccc([N+](=O)[O-])cc1
log(1/C) (Staphylococcus aureus): 4

C=C(C)C(=O)Oc1ccccc1Cl
log(1/C) (Bacillus cereus): 3.08 | log(1/C) (Enterococcus faecalis): 3.08 | log(1/C) (Staphylococcus aureus): 3.08 | log(1/C) (Bacillus subtilis): 3.08 | log(1/C) (Micrococcus luteus): 3.08 | log(1/C) (Wickerhamomyces anomalus): 3.28

CCCCCCCCCCCC[N+](C)(C)Cc1cc([N+](=O)[O-])ccc1O
log(1/C) (Staphylococcus aureus): 2.7

CCCCCCCCCCCC[N+](C)(C)Cc1ccc2c(c1)OCO2
log(1/C) (Staphylococcus aureus): 4

CCCCCCCCCCCC[N+](C)(C)Cc1ccccc1 [BENZODODECINIUM]
log(1/C) (Staphylococcus aureus): 3.74

N[C@@H](Cc1cc(Cl)c(Oc2cc(I)c(O)c(I)c2)c(Cl)c1)C(=O)O
Activity (Rattus norvegicus): 0.1% | log(activity) (Rattus norvegicus): -1

N[C@@H](Cc1cc(I)c(Oc2ccc(O)c(O)c2)c(I)c1)C(=O)O
Activity (Rattus norvegicus): 1.5% | log(activity) (Rattus norvegicus): 0.18

CCc1cc(Oc2c(I)cc(C[C@H](N)C(=O)O)cc2I)ccc1O
Activity (Rattus norvegicus): 506% | log(activity) (Rattus norvegicus): 2.7

Cc1cc(Cl)cc(C)c1O
log(1/C) (Aspergillus niger): 4.4

N[C@@H](Cc1cc(I)c(Oc2cc(F)c(O)c(F)c2)c(I)c1)C(=O)O
Activity (Rattus norvegicus): 1.8% | log(activity) (Rattus norvegicus): 0.26

N[C@@H](Cc1cc(I)c(Oc2ccc(O)cc2)c(I)c1)C(=O)O
Activity (Rattus norvegicus): 10% | log(activity) (Rattus norvegicus): 1

CCCCCCCC[N+](C)(C)Cc1ccc2c(c1)OCO2
log(1/C) (Staphylococcus aureus): 2.04

Cc1cc(Oc2c(C)cc(C[C@H](N)C(=O)O)cc2C)ccc1O
Activity (Rattus norvegicus): 3% | log(activity) (Rattus norvegicus): 0.48

N[C@@H](Cc1cc(I)c(Oc2ccc(O)c(Br)c2)c(I)c1)C(=O)O
Activity (Rattus norvegicus): 138% | log(activity) (Rattus norvegicus): 2.14

Cc1cccc(O)c1 [METACRESOL]
log(1/C) (Aspergillus niger): 2.68

N[C@@H](Cc1cc(I)c(Oc2ccc(O)c(-c3ccccc3)c2)c(I)c1)C(=O)O
Activity (Rattus norvegicus): 32% | log(activity) (Rattus norvegicus): 1.51

N[C@@H](Cc1cc(I)c(Oc2cc(Cl)c(O)c(Cl)c2)c(I)c1)C(=O)O
Activity (Rattus norvegicus): 0.9% | log(activity) (Rattus norvegicus): -0.05

Cc1cc(C)cc(O)c1
log(1/C) (Aspergillus niger): 3.26

N[C@@H](Cc1cc(I)c(Oc2cc(Br)c(O)c(Br)c2)c(I)c1)C(=O)O
Activity (Rattus norvegicus): 10% | log(activity) (Rattus norvegicus): 1

C=C(C)C(=O)Oc1c(Br)c(Br)c(Br)c(Br)c1Br
log(1/C) (Bacillus cereus): 3.85 | log(1/C) (Enterococcus faecalis): 3.64 | log(1/C) (Staphylococcus aureus): 5.32 | log(1/C) (Bacillus subtilis): 5.32 | log(1/C) (Micrococcus luteus): 3.64 | log(1/C) (Wickerhamomyces anomalus): 3.35

CCCCCCCCCC[N+](C)(C)Cc1ccc(Cl)cc1
log(1/C) (Staphylococcus aureus): 3.6

CCCCCCCC[N+](C)(C)Cc1ccccc1Cl
log(1/C) (Staphylococcus aureus): 2.02

CCCCCCCCCCCCCC[N+](C)(C)Cc1ccc(Cl)cc1
log(1/C) (Staphylococcus aureus): 4.34

CCCCCCCCCCCCCC[N+](C)(C)Cc1ccc(Cl)c(Cl)c1
log(1/C) (Staphylococcus aureus): 4.04

CCCCCCCCCCCCCC[N+](C)(C)Cc1ccc([N+](=O)[O-])cc1
log(1/C) (Staphylococcus aureus): 4.23

C=C(C)C(=O)Oc1cc(Cl)c(Cl)cc1Cl
log(1/C) (Bacillus cereus): 3.84 | log(1/C) (Enterococcus faecalis): 3.84 | log(1/C) (Staphylococcus aureus): 3.84 | log(1/C) (Bacillus subtilis): 3.84 | log(1/C) (Micrococcus luteus): 3.54 | log(1/C) (Wickerhamomyces anomalus): 3.54

Cc1cc(Oc2c(I)cc(C[C@H](N)C(=O)O)cc2I)ccc1O
Activity (Rattus norvegicus): 126% | log(activity) (Rattus norvegicus): 2.1

CCCCCCCCCCCCCCCCCC[N+](C)(C)Cc1ccc([N+](=O)[O-])cc1
log(1/C) (Staphylococcus aureus): 3.46

CC(C)c1cc(Cl)ccc1O
log(1/C) (Aspergillus niger): 4.3

C=C(C)C(=O)Oc1ccc(Cl)cc1
log(1/C) (Bacillus cereus): 3.25 | log(1/C) (Enterococcus faecalis): 3.25 | log(1/C) (Staphylococcus aureus): 3.12 | log(1/C) (Bacillus subtilis): 3.25 | log(1/C) (Micrococcus luteus): 3.25 | log(1/C) (Wickerhamomyces anomalus): 3.25

CCCCCCCC[N+](C)(C)Cc1ccc(Cl)c(Cl)c1
log(1/C) (Staphylococcus aureus): 2.92

Cc1cccc(C)c1O
log(1/C) (Aspergillus niger): 3.35

CCCCCCCCCCCCCCCCCC[N+](C)(C)Cc1ccccc1Cl
log(1/C) (Staphylococcus aureus): 3.43

C=C(C)C(=O)Oc1c(Cl)cc(Cl)cc1Cl
log(1/C) (Bacillus cereus): 3.76 | log(1/C) (Enterococcus faecalis): 3.76 | log(1/C) (Staphylococcus aureus): 3.76 | log(1/C) (Bacillus subtilis): 3.76 | log(1/C) (Micrococcus luteus): 3.24 | log(1/C) (Wickerhamomyces anomalus): 3.46

Oc1ccccc1-c1ccccc1 [2-PHENYLPHENOL]
log(1/C) (Aspergillus niger): 4.1

CCCCCCCCCCCCCCCC[N+](C)(C)Cc1ccc(OC)c(OC)c1
log(1/C) (Staphylococcus aureus): 3.41

N[C@@H](Cc1cc(I)c(Oc2cc(I)c(O)c(I)c2)c(I)c1)C(=O)O [LEVOTHYROXINE]
Activity (Rattus norvegicus): 100% | log(activity) (Rattus norvegicus): 2
